{"source": "patent US6613899B1", "about": "“Method for preventing deposits in oil extraction” (Cooperatie Cosun U.A., priority 1998, dated 2003)", "key": {"[1]": {"experiment": "Barium sulphate scale inhibition in presence of Fe2+ ions", "conditions": "38 mg/l Fe2+ ions, pH 5.5, 80° C., 10 hours", "protocol": "(§1) The scale-inhibiting action of CMI (DP≈10) was determined for barium sulphate. A saturated barium sulphate solution was prepared by mixing a barium chloride solution (380 mg/l) with a sodium sulphate solution (3350 mg/l) in a 1:1 ratio, with a maximum amount of barium sulphate to be formed of 210 mg/l. 5 mg/l, 10 mg/l or 15 mg/l of inhibitor was added to the solution. The pH of the solution was adjusted to 5.5 by addition of 1 ml acetate buffer (3.6 g sodium acetate trihydrate and 0.5 g acetic acid per 100 ml) per 100 ml. The solution was then left to stand at 80° C. After 10 hours the solution was filtered by suction through a 0.45 μm Millipore filter and the barium content of the filtrate was determined. The action of the inhibitor was calculated on the basis of the barium value for the experiment without inhibitor (0 per cent inhibition) and the barium value at which no precipitate was formed (100 per cent inhibition).\nExample 4 was repeated, with the exception that the barium sulphate solution contained 38 mg/l of Fe^2+ ions."}, "[2]": {"experiment": "Barium sulphate scale inhibition", "conditions": "pH 5.5, 80° C., 10 hours", "protocol": "as §1"}}, "data": [{"smiles": "O=P(O)(O)CN(CCN(CP(=O)(O)O)CP(=O)(O)O)CCN(CP(=O)(O)O)CP(=O)(O)O", "note": "[Pentaphosphonate (DETPMP)]", "values": [{"measurement": "Inhibition (%) with 5 mg/l", "setting": "[1]; 5 mg/l inhibitor", "result": 12.0, "unit": "%"}, {"measurement": "Inhibition (%) with 10 mg/l", "setting": "[1]; 10 mg/l inhibitor", "result": 21.5, "unit": "%"}, {"measurement": "Inhibition (%) with 15 mg/l", "setting": "[1]; 15 mg/l inhibitor", "result": 34.5, "unit": "%"}, {"measurement": "Inhibition (%) with 5 mg/l", "setting": "[2]; 5 mg/l inhibitor", "result": 18.0, "unit": "%"}, {"measurement": "Inhibition (%) with 10 mg/l", "setting": "[2]; 10 mg/l inhibitor", "result": 38.5, "unit": "%"}, {"measurement": "Inhibition (%) with 15 mg/l", "setting": "[2]; 15 mg/l inhibitor", "result": 55.5, "unit": "%"}]}]}
